Reference: BigSolDB 2.1

Settings: in water

O=S(=O)([O-])c1cccc2ccccc12.[Na+]
Settings	solubility (mole fraction)
278.15 K	0.0107
283.15 K	0.0109
288.15 K	0.0113
293.15 K	0.0119
298.15 K	0.0126
303.15 K	0.0134
308.15 K	0.0141
313.15 K	0.0152
318.15 K	0.0169
323.15 K	0.0192
